Data published in ChEMBL document CHEMBL1122167, “Syntheses and adrenergic agonist properties of ring-fluorinated isoproterenols” (J Med Chem, 1982).

What was measured:
[1] = target: Adrenergic receptor alpha
Adrenergic receptor beta [2] = target: Adrenergic receptor beta (Homo sapiens, UniProt P08588+P07550+P13945)
Description: Evaluated for Beta adrenergic receptor agonistic property in isolated guinea pig atria

Adrenergic receptor beta [3] = target: Adrenergic receptor beta (Rattus norvegicus, UniProt P18090+P10608+P26255)

Structure (SMILES)	IC50 [1]	EC50 (Adrenergic receptor beta [2])	IC50 (Adrenergic receptor beta [3])
CC(C)NCC(O)c1ccc(O)c(O)c1 (racemic) [ISOPROTERENOL]	> 100 µM	–	–
CC(C)NCC(O)c1ccc(O)c(O)c1F (stereo not given)	59 µM	0.01 µM	0.5 µM
CC(C)NCC(O)c1cc(O)c(O)cc1F (stereo not given)	80 µM	30 µM	5.5 µM
CC(C)NCC(O)c1cc(O)c(O)c(F)c1 (stereo not given)	55 µM	0.02 µM	0.6 µM
